From publication PMC12544700, “Identification of a Small Secretoneurin Derivative That Inhibits CaMKIIδ Activity” (Journal of Cellular and Molecular Medicine, 2025)
Peptide text beside a SMILES is read from it. * marks the point of attachment. Biotin = O=C1N[C@H]2[C@H](CS[C@H]2CCCCC(=O)*)N1; Ahx = NCCCCCC(=O)O

Test system: CaMKIIδ fragments (aa 1–74, 1–165, 1–282, 1–311, 69–282)
Assay: ELISA-based binding to CaMKIIδ fragments
Design: species or system rat
Conditions: biotinylated peptide; fragments coated in wells; relative to Scram; Figure 2B, n = 9–13
Description: Recombinant human His‐CaMKIIδ‐T287D and rat His‐CaMKIIδ‐T287D full‐length proteins (T287D mutated to mimic active kinases) and rat His‐CaMKIIδ (1–74), rat His‐CaMKIIδ (1–165), rat His‐CaMKIIδ (1–282), rat His‐CaMKIIδ‐T287D (1–311), and rat His‐CaMKIIδ (69–282) recombinant fragments were generated by Genscript Corp.
A 96‐well microplate was coated with 1 μg/well of rat or human recombinant His‐CaMKIIδ‐T287D or CaMKIIδ fragments (custom made by Genscript) in 1× PBS overnight at 4°C with gentle tilting. Wells were washed with 1× PBS‐t (0.1% Tween‐20) and blocked with 0.5% gelatin (G‐1890 Gelatin type A, Sigma Merck, Darmstadt, Germany) or BSA (805095 30% BSA (Rinderalbumin 30%), Norsk Labex, Høvik, Norway) for 1 h at room temperature (RT), then incubated with 5 μL of biotinylated peptide (1 mM) for 2 h at 37°C with gentle tilting. The wells were then washed five times with 1× PBS‐t. To detect binding, the wells were incubated with a monoclonal anti‐biotin‐HRP conjugated antibody (1:5000 dilution, A‐0185, Sigma) for 30 min at RT. […] The reaction was stopped by adding 2 N HCl (100 μL), and the signal was measured at 450 nm by a plate reader (Hidex Sense Microplate Reader, Åbo, Finland). […]

Binding to CaMKIIδ fragments: binding was detected for all fragments
SMILES: CC(C)C[C@H](NC(=O)[C@H](CCC(=O)O)NC(=O)[C@H](CCC(N)=O)NC(=O)[C@H](Cc1ccccc1)NC(=O)[C@H](Cc1ccccc1)NC(=O)[C@H](CO)NC(=O)[C@H](CCC(=O)O)NC(=O)[C@H](Cc1ccccc1)NC(=O)[C@@H](NC(=O)[C@H](C)NC(=O)[C@H](CC(C)C)NC(=O)[C@H](CO)NC(=O)[C@H](CCC(N)=O)NC(=O)[C@@H]1CCCN1C(=O)[C@@H](NC(=O)[C@H](Cc1ccc(O)cc1)NC(=O)[C@H](CCC(N)=O)NC(=O)[C@H](CCC(=O)O)NC(=O)CCCCCNC(=O)CCCC[C@@H]1SC[C@@H]2NC(=O)N[C@@H]21)[C@@H](C)O)[C@@H](C)O)C(=O)NCC(=O)N[C@@H](CCCCN)C(=O)O [SN‐db‐short] ({Biotin-Ahx}-EQYTPQSLATFESFFQELGK-OH; N-terminus and C-terminus assumed)
